Experimental data reported in ChEMBL document CHEMBL4507285, “Data for DCP probe MRL-SYKi” (2021).

Key:
[1] = system: Tyrosine-protein kinase ABL1 (Homo sapiens), P00519 [H396P]; details: Compound concentration 100.0 nM
[2] = biological target: MAP/microtubule affinity-regulating kinase 3 (Homo sapiens) (UniProt P27448); details: Compound concentration 100.0 nM
[3] = biological target: Hepatocyte growth factor receptor (Homo sapiens) (UniProt P08581); details: Compound concentration 100.0 nM
[4] = biological target: Platelet-derived growth factor receptor alpha (Homo sapiens) (UniProt P16234); details: Compound concentration 100.0 nM
[5] = biological target: Mitogen-activated protein kinase 7 (Homo sapiens) (UniProt Q13164); details: Compound concentration 100.0 nM
[6] = system: Epidermal growth factor receptor (Homo sapiens), P00533 [UNDEFINED MUTATION]; details: Compound concentration 100.0 nM
[7] = biological target: Phosphatidylinositol 4,5-bisphosphate 3-kinase catalytic subunit gamma isoform (Homo sapiens) (UniProt P48736); details: Compound concentration 100.0 nM
[8] = biological target: Epithelial discoidin domain-containing receptor 1 (Homo sapiens) (UniProt Q08345); details: Compound concentration 100.0 nM
[9] = biological target: Receptor-interacting serine/threonine-protein kinase 4 (Homo sapiens) (UniProt P57078); details: Compound concentration 100.0 nM
[10] = system: Phosphatidylinositol 4,5-bisphosphate 3-kinase catalytic subunit alpha isoform (Homo sapiens), P42336 [Q546K]; details: Compound concentration 100.0 nM
[11] = system: Hepatocyte growth factor receptor (Homo sapiens), P08581 [M1250T]; details: Compound concentration 100.0 nM
[12] = biological target: Serine/threonine-protein kinase PLK2 (Homo sapiens) (UniProt Q9NYY3); details: Compound concentration 100.0 nM
[13] = biological target: Tyrosine-protein kinase ITK/TSK (Homo sapiens) (UniProt Q08881); details: Compound concentration 100.0 nM
[14] = biological target: Proto-oncogene tyrosine-protein kinase Src (Homo sapiens, UniProt P12931); details: Compound concentration 100.0 nM
[15] = biological target: Serine/threonine-protein kinase RIO3 (Homo sapiens) (UniProt O14730); details: Compound concentration 100.0 nM
[16] = system: Epidermal growth factor receptor (Homo sapiens), P00533 [L858R]; details: Compound concentration 100.0 nM
[17] = biological target: Ribosomal protein S6 kinase alpha-1 (Homo sapiens) (UniProt Q15418); details: Compound concentration 100.0 nM
[18] = biological target: Membrane-associated tyrosine- and threonine-specific cdc2-inhibitory kinase (Homo sapiens) (UniProt Q99640); details: Compound concentration 100.0 nM
[19] = biological target: Protein-tyrosine kinase 2-beta (Homo sapiens) (UniProt Q14289); details: Compound concentration 100.0 nM
[20] = biological target: Phosphatidylinositol 4,5-bisphosphate 3-kinase catalytic subunit alpha isoform (Homo sapiens) (UniProt P42336); details: Compound concentration 100.0 nM
[21] = biological target: Serine/threonine-protein kinase PRP4 homolog (Homo sapiens) (UniProt Q13523); details: Compound concentration 100.0 nM
[22] = biological target: cGMP-dependent protein kinase 1 (Homo sapiens) (UniProt Q13976); details: Compound concentration 100.0 nM
[23] = biological target: Macrophage colony-stimulating factor 1 receptor (Homo sapiens) (UniProt P07333); details: Compound concentration 100.0 nM
[24] = biological target: Tyrosine-protein kinase JAK1 (Homo sapiens) (UniProt P23458); details: Compound concentration 100.0 nM
[25] = biological target: Mitogen-activated protein kinase kinase kinase 2 (Homo sapiens) (UniProt Q9Y2U5); details: Compound concentration 100.0 nM
[26] = biological target: Ephrin type-A receptor 2 (Homo sapiens) (UniProt P29317); details: Compound concentration 100.0 nM
[27] = biological target: Phosphatidylinositol 5-phosphate 4-kinase type-2 beta (Homo sapiens) (UniProt P78356); details: Compound concentration 100.0 nM
[28] = biological target: Dual specificity mitogen-activated protein kinase kinase 5 (Homo sapiens) (UniProt Q13163); details: Compound concentration 100.0 nM
[29] = biological target: SRSF protein kinase 1 (Homo sapiens) (UniProt Q96SB4); details: Compound concentration 100.0 nM
[30] = biological target: Serine/threonine-protein kinase PAK 6 (Homo sapiens) (UniProt Q9NQU5); details: Compound concentration 100.0 nM
[31] = biological target: Protein kinase C epsilon type (Homo sapiens) (UniProt Q02156); details: Compound concentration 100.0 nM
[32] = biological target: Cyclin-dependent kinase 11B (Homo sapiens) (UniProt P21127); details: Compound concentration 100.0 nM
[33] = biological target: Non-receptor tyrosine-protein kinase TYK2 (Homo sapiens) (UniProt P29597); details: Compound concentration 100.0 nM
[34] = biological target: Mitogen-activated protein kinase kinase kinase 5 (Homo sapiens) (UniProt Q99683); details: Compound concentration 100.0 nM
[35] = biological target: Ankyrin repeat and protein kinase domain-containing protein 1 (Homo sapiens) (UniProt Q8NFD2); details: Compound concentration 100.0 nM
[36] = biological target: Interleukin-1 receptor-associated kinase 3 (Homo sapiens) (UniProt Q9Y616); details: Compound concentration 100.0 nM
[37] = biological target: 5-hydroxytryptamine receptor 1A (Homo sapiens) (UniProt P08908); details: Compound concentration 10.0 uM
[38] = biological target: Delta-type opioid receptor (Homo sapiens) (UniProt P41143); details: Compound concentration 10.0 uM
[39] = system: Mast/stem cell growth factor receptor Kit (Homo sapiens), P10721 [V559D,V654A]; details: Compound concentration 100.0 nM
[40] = biological target: High affinity nerve growth factor receptor (Homo sapiens, UniProt P04629); details: Compound concentration 100.0 nM
[41] = biological target: Wee1-like protein kinase 2 (Homo sapiens) (UniProt P0C1S8); details: Compound concentration 100.0 nM
[42] = biological target: Serine/threonine-protein kinase NIM1 (Homo sapiens) (UniProt Q8IY84); details: Compound concentration 100.0 nM
[43] = system: Phosphatidylinositol 4,5-bisphosphate 3-kinase catalytic subunit alpha isoform (Homo sapiens), P42336 [H1047Y]; details: Compound concentration 100.0 nM
[44] = biological target: Dual specificity protein kinase CLK3 (Homo sapiens) (UniProt P49761); details: Compound concentration 100.0 nM

Sequence of Cyclin-dependent kinase 11B (Homo sapiens) (P21127 whole entry): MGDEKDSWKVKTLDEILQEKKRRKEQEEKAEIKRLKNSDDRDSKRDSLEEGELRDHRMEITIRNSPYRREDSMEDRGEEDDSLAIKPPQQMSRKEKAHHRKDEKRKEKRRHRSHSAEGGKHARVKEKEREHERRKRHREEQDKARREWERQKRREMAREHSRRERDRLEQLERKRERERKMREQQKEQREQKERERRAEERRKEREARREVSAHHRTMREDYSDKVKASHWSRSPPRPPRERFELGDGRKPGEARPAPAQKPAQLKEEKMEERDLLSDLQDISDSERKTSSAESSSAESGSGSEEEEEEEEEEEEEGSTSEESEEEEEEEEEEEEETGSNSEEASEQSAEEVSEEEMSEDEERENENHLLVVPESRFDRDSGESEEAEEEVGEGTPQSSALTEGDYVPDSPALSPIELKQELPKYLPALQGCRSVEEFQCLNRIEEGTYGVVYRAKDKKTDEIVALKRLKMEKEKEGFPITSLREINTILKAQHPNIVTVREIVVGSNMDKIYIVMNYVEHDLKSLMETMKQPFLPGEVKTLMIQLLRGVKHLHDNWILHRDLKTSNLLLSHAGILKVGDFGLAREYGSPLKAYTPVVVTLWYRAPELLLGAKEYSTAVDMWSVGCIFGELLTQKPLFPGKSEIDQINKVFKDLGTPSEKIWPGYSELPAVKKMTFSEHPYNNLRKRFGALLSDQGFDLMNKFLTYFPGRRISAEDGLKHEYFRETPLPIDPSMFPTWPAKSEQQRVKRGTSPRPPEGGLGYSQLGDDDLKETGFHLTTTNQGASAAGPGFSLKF
Sequence of Ephrin type-A receptor 2 (Homo sapiens) (P29317 whole entry): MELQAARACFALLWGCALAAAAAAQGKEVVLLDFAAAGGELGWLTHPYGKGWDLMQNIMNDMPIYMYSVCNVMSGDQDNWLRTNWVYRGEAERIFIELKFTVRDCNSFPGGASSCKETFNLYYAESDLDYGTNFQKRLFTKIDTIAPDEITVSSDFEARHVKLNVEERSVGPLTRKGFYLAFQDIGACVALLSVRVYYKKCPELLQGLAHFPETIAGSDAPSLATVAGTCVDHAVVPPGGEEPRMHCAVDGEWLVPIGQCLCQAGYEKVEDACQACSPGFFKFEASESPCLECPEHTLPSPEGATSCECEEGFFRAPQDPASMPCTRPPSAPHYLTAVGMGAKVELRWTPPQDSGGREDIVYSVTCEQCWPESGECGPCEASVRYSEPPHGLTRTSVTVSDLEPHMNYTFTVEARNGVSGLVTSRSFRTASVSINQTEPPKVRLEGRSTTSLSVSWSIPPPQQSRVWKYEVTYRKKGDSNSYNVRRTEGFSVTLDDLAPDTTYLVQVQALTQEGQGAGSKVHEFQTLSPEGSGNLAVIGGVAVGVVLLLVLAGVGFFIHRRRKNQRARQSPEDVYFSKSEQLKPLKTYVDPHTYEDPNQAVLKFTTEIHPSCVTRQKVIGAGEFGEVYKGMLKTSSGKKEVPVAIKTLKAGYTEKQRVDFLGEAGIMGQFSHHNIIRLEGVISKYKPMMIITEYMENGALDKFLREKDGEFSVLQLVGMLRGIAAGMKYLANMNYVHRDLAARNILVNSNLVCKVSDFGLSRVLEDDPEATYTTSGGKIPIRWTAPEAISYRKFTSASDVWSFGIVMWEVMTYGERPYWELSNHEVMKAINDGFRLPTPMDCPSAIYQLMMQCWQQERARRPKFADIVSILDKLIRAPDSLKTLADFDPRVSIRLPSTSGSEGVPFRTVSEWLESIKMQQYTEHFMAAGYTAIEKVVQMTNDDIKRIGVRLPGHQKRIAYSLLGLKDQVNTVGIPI
Sequence of Membrane-associated tyrosine- and threonine-specific cdc2-inhibitory kinase (Homo sapiens) (Q99640 whole entry): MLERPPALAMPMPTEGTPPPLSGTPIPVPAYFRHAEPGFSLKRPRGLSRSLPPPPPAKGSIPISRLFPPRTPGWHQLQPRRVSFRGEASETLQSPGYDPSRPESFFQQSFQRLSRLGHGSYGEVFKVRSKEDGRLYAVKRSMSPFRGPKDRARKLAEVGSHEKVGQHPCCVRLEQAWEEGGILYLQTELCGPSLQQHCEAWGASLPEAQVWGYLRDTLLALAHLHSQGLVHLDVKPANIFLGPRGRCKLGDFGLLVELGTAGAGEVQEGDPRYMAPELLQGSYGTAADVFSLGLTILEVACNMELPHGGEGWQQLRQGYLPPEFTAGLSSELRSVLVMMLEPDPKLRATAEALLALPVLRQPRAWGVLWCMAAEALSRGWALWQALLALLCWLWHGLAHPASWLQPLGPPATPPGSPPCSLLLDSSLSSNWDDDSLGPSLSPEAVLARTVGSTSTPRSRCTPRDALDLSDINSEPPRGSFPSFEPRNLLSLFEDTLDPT
Sequence of Serine/threonine-protein kinase RIO3 (Homo sapiens) (O14730 whole entry): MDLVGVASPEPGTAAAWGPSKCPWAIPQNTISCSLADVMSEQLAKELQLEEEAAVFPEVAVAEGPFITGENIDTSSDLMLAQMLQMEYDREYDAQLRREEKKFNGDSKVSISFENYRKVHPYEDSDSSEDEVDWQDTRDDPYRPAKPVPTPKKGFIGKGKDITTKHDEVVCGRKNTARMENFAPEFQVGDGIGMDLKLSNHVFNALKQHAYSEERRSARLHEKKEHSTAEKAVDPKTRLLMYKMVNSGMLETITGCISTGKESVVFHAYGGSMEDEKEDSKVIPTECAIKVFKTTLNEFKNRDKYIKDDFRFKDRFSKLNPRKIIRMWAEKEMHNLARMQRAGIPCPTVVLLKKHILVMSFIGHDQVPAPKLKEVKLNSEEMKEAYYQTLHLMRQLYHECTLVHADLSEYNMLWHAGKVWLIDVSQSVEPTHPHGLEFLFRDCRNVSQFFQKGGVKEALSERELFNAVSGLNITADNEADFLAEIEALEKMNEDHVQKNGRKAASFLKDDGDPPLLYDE
Sequence of Mitogen-activated protein kinase kinase kinase 5 (Homo sapiens) (Q99683 whole entry, the tested form may be a part): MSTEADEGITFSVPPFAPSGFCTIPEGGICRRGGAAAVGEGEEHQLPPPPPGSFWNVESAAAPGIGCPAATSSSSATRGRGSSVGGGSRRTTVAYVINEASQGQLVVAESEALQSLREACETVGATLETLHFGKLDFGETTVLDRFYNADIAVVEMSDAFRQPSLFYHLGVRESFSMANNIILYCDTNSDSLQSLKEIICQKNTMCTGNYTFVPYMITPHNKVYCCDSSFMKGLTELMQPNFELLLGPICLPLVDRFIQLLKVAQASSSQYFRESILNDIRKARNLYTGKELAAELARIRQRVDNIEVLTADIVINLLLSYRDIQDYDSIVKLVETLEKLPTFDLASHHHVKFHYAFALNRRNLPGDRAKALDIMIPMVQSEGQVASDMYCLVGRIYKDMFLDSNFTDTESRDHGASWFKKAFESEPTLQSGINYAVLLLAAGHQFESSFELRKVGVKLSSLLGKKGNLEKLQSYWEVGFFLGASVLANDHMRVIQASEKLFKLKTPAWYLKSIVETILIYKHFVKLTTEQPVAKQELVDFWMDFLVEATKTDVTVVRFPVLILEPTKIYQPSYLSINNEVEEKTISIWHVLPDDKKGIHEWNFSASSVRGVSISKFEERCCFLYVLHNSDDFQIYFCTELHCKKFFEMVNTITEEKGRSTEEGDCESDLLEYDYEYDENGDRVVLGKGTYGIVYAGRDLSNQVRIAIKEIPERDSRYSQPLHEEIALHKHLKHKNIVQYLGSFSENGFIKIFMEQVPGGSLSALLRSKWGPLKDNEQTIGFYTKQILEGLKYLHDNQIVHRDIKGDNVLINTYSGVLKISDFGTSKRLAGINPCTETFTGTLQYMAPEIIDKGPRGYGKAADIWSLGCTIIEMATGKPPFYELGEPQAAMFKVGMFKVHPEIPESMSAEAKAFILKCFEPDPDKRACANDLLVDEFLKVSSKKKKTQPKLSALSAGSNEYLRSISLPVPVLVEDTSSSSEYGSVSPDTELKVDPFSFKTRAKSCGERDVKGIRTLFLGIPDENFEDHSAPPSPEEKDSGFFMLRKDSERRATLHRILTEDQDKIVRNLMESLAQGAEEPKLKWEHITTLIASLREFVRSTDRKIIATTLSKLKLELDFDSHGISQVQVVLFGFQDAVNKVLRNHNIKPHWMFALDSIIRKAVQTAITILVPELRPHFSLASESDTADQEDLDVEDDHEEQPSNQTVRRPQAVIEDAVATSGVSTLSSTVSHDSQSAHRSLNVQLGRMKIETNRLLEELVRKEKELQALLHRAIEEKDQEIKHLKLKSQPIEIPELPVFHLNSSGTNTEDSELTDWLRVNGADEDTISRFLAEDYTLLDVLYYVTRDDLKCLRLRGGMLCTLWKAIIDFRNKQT
Sequence of cGMP-dependent protein kinase 1 (Homo sapiens) (Q13976 whole entry): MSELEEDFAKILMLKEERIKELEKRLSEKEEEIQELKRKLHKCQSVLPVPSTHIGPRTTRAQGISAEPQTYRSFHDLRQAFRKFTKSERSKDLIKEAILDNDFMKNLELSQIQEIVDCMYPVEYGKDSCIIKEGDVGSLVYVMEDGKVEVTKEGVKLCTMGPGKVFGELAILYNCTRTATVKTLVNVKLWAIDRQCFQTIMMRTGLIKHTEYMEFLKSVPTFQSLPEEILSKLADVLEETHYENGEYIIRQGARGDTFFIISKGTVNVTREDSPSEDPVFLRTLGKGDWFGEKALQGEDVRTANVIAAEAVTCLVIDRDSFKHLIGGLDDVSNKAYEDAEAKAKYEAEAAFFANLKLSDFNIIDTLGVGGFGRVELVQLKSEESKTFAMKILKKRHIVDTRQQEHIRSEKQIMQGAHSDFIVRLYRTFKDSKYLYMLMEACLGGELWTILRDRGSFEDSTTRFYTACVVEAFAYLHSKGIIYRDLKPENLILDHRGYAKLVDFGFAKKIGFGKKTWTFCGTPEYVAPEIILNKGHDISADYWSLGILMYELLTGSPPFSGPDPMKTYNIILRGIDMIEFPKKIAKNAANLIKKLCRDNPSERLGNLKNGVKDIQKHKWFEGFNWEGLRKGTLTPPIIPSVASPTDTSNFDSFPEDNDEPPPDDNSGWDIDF

Cc1ccc(-c2cnc([C@@]3(O)CC[C@H](C(=O)O)C(C)(C)C3)s2)cc1Nc1cccc(C(F)(F)F)n1 [MRL-SYKi-NC]
residual activity [1]: 95.4% | residual activity [2]: 100% | residual activity [3]: 100% | residual activity [4]: 92.6% | residual activity [5]: 100% | residual activity [6]: 100% | residual activity [7]: 85.4% | residual activity [8]: 100% | residual activity [9]: 92.8% | residual activity [10]: 100% | residual activity [11]: 89% | residual activity [12]: 100% | residual activity [13]: 94.7% | residual activity [14]: 100% | residual activity [15]: 100% | residual activity [16]: 76.6% | residual activity [17]: 100% | residual activity [18]: 93.1% | residual activity [19]: 72.5% | residual activity [20]: 86.9% | residual activity [21]: 82.6% | residual activity [22]: 77.5% | residual activity [23]: 84% | residual activity [24]: 92.6% | residual activity [25]: 100% | residual activity [26]: 100% | residual activity [27]: 61.3% | residual activity [28]: 85.2% | residual activity [29]: 89.7% | residual activity [30]: 70.5% | residual activity [31]: 100% | residual activity [32]: 95.4% | residual activity [33]: 100% | residual activity [34]: 100% | residual activity [35]: 93.5% | residual activity [36]: 93% | inhibition [37]: 17.5% | inhibition [38]: 25.1% | residual activity [39]: 100% | residual activity [40]: 64.5% | residual activity [41]: 89.5% | residual activity [42]: 100% | residual activity [43]: 81.3% | residual activity [44]: 76%

Cc1cc(Nc2nccc(C)n2)cc(-c2cnc([C@@]3(O)CC[C@H](C(=O)O)C(C)(C)C3)s2)c1 [MRL-SYKi]
residual activity [1]: 53.9% | residual activity [2]: 100% | residual activity [3]: 100% | residual activity [4]: 100% | residual activity [5]: 83.6% | residual activity [6]: 74% | residual activity [7]: 100% | residual activity [8]: 84.5% | residual activity [9]: 91.9% | residual activity [10]: 81.6% | residual activity [11]: 93.7% | residual activity [12]: 100% | residual activity [13]: 81% | residual activity [14]: 53.7% | residual activity [15]: 77.2% | residual activity [16]: 75.3% | residual activity [17]: 100% | residual activity [18]: 100% | residual activity [19]: 100% | residual activity [20]: 100% | residual activity [21]: 90.3% | residual activity [22]: 100% | residual activity [23]: 85.6% | residual activity [24]: 31.8% | residual activity [25]: 100% | residual activity [26]: 100% | residual activity [27]: 79.6% | residual activity [28]: 25.2% | residual activity [29]: 97.7% | residual activity [30]: 100% | residual activity [31]: 100% | residual activity [32]: 93.3% | residual activity [33]: 68.6% | residual activity [34]: 83.3% | residual activity [35]: 100% | residual activity [36]: 44.7% | inhibition [37]: -0.0778% | inhibition [38]: 12.8% | residual activity [39]: 100% | residual activity [40]: 30.2% | residual activity [41]: 100% | residual activity [42]: 100% | residual activity [43]: 14.7% | residual activity [44]: 100%
